Measured values from ChEMBL document CHEMBL1140768, “Constituents of Brazilian red propolis and their preferential cytotoxic activity against human pancreatic PANC-1 cancer cell line in nutrient-deprived condition” (2008).

Test system: PANC-1
Assay: Cytotoxicity against human PANC1 cells in nutrient deprived medium after 24 hrs
Assay type: functional

COc1cc(O)ccc1[C@H]1COc2cc(O)ccc2C1
CD100: >100 µM

O=C1c2ccc(O)cc2O[C@H](c2ccccc2)[C@H]1O
CD100: >100 µM

O=C(c1ccc(O)cc1O)[C@@H](O)Cc1ccc(O)cc1
CD100: >100 µM

C=C[C@@H](c1ccccc1)c1cc(O)c(OC)cc1OC
CD100: >100 µM

COc1ccc([C@H]2COc3cc(O)ccc3C2)c(O)c1
CD100: >100 µM

COc1ccc([C@H]2COc3cc(O)ccc3C2=O)c(O)c1
CD100: >100 µM

COc1ccc2c(c1O)O[C@@H]1c3ccc(O)cc3OC[C@H]21
CD100: 50 µM

COc1ccc2c(C)c(-c3ccc(O)cc3O)oc2c1
CD100: 50 µM

COc1ccc2c(c1)O[C@H]1c3ccc(O)c(O)c3OC[C@@H]21
CD100: 25 µM

COc1cc(O)ccc1C(=O)/C=C/c1ccc(O)cc1
CD100: >100 µM

COc1ccc([C@H]2COc3cc(O)ccc3C2=O)c(OC)c1O
CD100: >100 µM

O=C1c2ccc(O)cc2OC1(O)Cc1ccc(O)cc1 (centres undefined)
CD100: >100 µM

COc1cc2c(cc1O)O[C@H](c1ccccc1)[C@@H](O)C2=O
CD100: >100 µM

COc1ccc([C@H]2COc3cc(OC)ccc3C2)c(O)c1
CD100: 25 µM

CCO[C@@]12COc3cc(O)ccc3[C@@H]1Oc1cc(OC)ccc12
CD100: >100 µM

O=C1C[C@@H](c2ccccc2)Oc2cc(O)c(O)c(O)c21
CD100: >100 µM

COc1cc2c(cc1O)O[C@H](c1ccccc1)CC2=O
CD100: 50 µM

O=C1C[C@@H](c2ccccc2)Oc2cc(O)ccc21
CD100: >100 µM

COc1ccc(-c2coc3cc(O)cc(O)c3c2=O)c(O)c1
CD100: >100 µM

COc1ccc([C@H]2COc3cc(O)cc(O)c3C2=O)c(O)c1
CD100: >100 µM

COc1ccc2c(c1)O[C@H]1c3ccc(O)c(OC)c3OC[C@@H]21
CD100: >100 µM

COc1ccc2c(c1)O[C@@H]1c3ccc(O)cc3OC[C@H]21
CD100: 50 µM

O=C(/C=C/c1ccccc1)c1ccc(O)cc1O [2',4'-DIHYDROXYCHALCONE]
CD100: >100 µM

COc1ccc([C@H]2OC[C@H]3[C@@H]2CO[C@@H]3c2ccc(OC)c(OC)c2)cc1OC [(+)-EUDESMIN]
CD100: >100 µM

COc1cc([C@@H]2OC[C@@H]3[C@H]2CO[C@H]3c2ccc(O)c(OC)c2)ccc1O [(+)-PINORESINOL]
CD100: >100 µM

COc1c(O)cc2oc(-c3ccccc3)c(O)c(=O)c2c1O [ALNUSIN]
CD100: >100 µM

COc1c(O)cc2c(c1O)C(=O)[C@H](O)[C@@H](c1ccccc1)O2 [ALNUSTINOL]
CD100: >100 µM

COc1cc(C[C@H]2C(=O)OC[C@@H]2Cc2ccc(OC)c(OC)c2)ccc1O [ARCTIGENIN]
CD100: 1 µM

COc1ccc(-c2coc3cc(O)cc(O)c3c2=O)cc1 [BIOCHANIN]
CD100: >100 µM

COc1ccc(-c2coc3cc(O)ccc3c2=O)cc1O [CALYCOSIN]
CD100: >100 µM

O=c1c(-c2ccc(O)cc2)coc2cc(O)ccc12 [DAIDZEIN]
CD100: >100 µM

COc1c(O)cc2c(c1O)C(=O)C[C@@H](c1ccccc1)O2 [DIHYDROOROXYLIN A]
CD100: >100 µM

O=c1[nH]cc(F)c(=O)[nH]1 [FLUOROURACIL]
CD100: >100 µM

COc1ccc(-c2coc3cc(O)ccc3c2=O)cc1 [FORMONONETIN]
CD100: >100 µM

O=C1c2ccc(O)cc2O[C@H](c2ccc(O)cc2)[C@H]1O [GARBANZOL]
CD100: >100 µM

O=C(/C=C/c1ccc(O)cc1)c1ccc(O)cc1O [ISOLIQUIRITIGENIN]
CD100: >100 µM

O=C1C[C@@H](c2ccc(O)cc2)Oc2cc(O)ccc21 [LIQUIRTIGENIN]
CD100: >100 µM

COc1ccc([C@H]2COc3cc(O)ccc3C2)c(OC)c1O [MUCRONULATOL]
CD100: >100 µM

O=C1C[C@@H](c2ccc(O)cc2)Oc2cc(O)cc(O)c21 [NARINGENIN]
CD100: >100 µM

CC(=O)O[C@H]1C(=O)[C@@]2(C)[C@H]([C@H](OC(=O)c3ccccc3)[C@]3(O)C[C@H](OC(=O)[C@H](O)[C@@H](NC(=O)c4ccccc4)c4ccccc4)C(C)=C1C3(C)C)[C@]1(OC(C)=O)CO[C@@H]1C[C@@H]2O [PACLITAXEL]
CD100: >100 µM

COc1ccc(-c2coc3cc(O)cc(O)c3c2=O)cc1O [PRATENSEIN]
CD100: >100 µM

COc1cc2c(cc1OC)[C@@H]1COc3cc(O)ccc3[C@@H]1O2 [SECUNDIFLOROL I]
CD100: >100 µM

COc1cc([C@H]2OC[C@H]3[C@@H]2CO[C@@H]3c2cc(OC)c(O)c(OC)c2)cc(OC)c1O [SYRINGARESINOL]
CD100: >100 µM

COc1ccc(-c2coc3cc(O)ccc3c2=O)c(O)c1 [XENOGNOSIN B]
CD100: >100 µM
